{"source": "patent US10238630B2", "about": "“Use of eribulin and poly (ADP ribose) polymerase (PARP) inhibitors as combination therapy for the treatment of cancer” (Eisai R&D Management Co., Ltd., priority 2014, dated 2019)", "key": {"[1]": {"test_system": "MDA-MB-231 human breast cancer xenografts", "assay": "Antitumor activity against subcutaneous MDA-MB-231 human breast cancer xenografts in athymic mice (two studies)", "format": "in vivo", "conditions": "carboplatin 15 and 60 mg/kg IV QDx1, single agent", "procedure": "(§1) MDA-MB-231 human triple negative breast cancer cells are wild type for BRCA1 and 2 and PTEN. Cells were maintained in monolayer cultures in RPMI-1640 growth medium supplemented with 10% fetal bovine serum at 37° C. in a 5% CO2 humidified incubator. On the day of inoculation, cells were harvested by trypsinization, washed, and resuspended in ice-cold PBS. Female immunodeficient athymic mice were inoculated subcutaneously near the right axillary area with MDA-MB-231 cells (5×10^6) in a 1:1 ratio (50 μL each) with Matrigel™ in a volume of 0.1 mL in phosphate buffered saline, using a 26-gauge needle. A total of 94 mice, approximately 6 weeks old were implanted with MDA-MB-231 cells.\nE7449, carboplatin and E7389 were evaluated as single agents and in combination for antitumor activity against MDA-MB-231 human breast cancer xenografts in athymic mice. The first experiment consisted of a vehicle control group, an E7449 single agent group, 2 groups treated with single agent E7389 and 2 combination drug-treated groups (Table 5). Thirty-nine mice were inoculated with MDA-MB-231 cells and on Day 21 following implantation, tumor volumes were measured and mice were randomized into the 6 treatment groups based on tumor volume (average of 300 mm^3). Following randomization drug treatment was initiated. Each group was composed of 5 mice for a total of 30 mice on the first day of treatment. E7449 was formulated in 0.5% methyl cellulose and orally administered once daily for 28 days at 100 mg/kg based on body weight at 0.1 mL per 10 g. E7389 was formulated in saline and was intravenously administered once every 4 days, 4 times (Day 21, 25, 29, and 33) at a dosage of 0.05 or 0.1 mg/kg as single agent or in combination with E7449, based on body weight at 0.1 mL per 10 g. The control group was treated with oral vehicle (0.5% methyl cellulose in water) daily and intravenous vehicle (saline) once every 4 days, 4 times. E7449 or vehicle was administered first and when dosing of all animals was complete E7389 was administered to animals receiving the combination.\nThe second experiment consisted of a vehicle control group, 2 groups treated with single agent E7449, 2 groups treated with single agent carboplatin and 3 combination drug-treated groups (Table 6). Fifty five mice were inoculated with MDA-MB-231 cells and on Day 18 following implantation, tumor volumes were measured and mice were randomized into 8 treatment groups based on tumor volume (average of 300 mm^3). Following randomization drug treatment was initiated. Each group consisted of 5 mice for a total of 40 mice on the first day of treatment. E7449, formulated in 0.5% methyl cellulose was orally administered daily for 28 days, at 60 or 100 mg/kg based on body weight at 0.1 mL per 10 g. Carboplatin was formulated in saline and was intravenously administered once on the first day of treatment (Day 18) at a dosage of 15 or 60 mg/kg as a single agent or in combination with E7449 based on body weight at 0.1 mL per 10 g. The control group was treated with oral vehicle (0.5% methyl cellulose in water) daily and intravenous vehicle (saline) once on Day 18. E7449 or vehicle was administered first and when dosing of all animals was complete carboplatin was administered to animals receiving the combination.\nDrug treatment was initiated 21 or 18 days post tumor implantation, in the E7389 and carboplatin combination studies respectively, and continued for 28 days. […]"}, "[2]": {"test_system": "MDA-MB-436 human breast cancer xenografts", "assay": "Antitumor activity against subcutaneous MDA-MB-436 human breast cancer xenografts in SCID mice (three studies)", "format": "in vivo", "procedure": "as §1, with “MDA-MB-436” for “MDA-MB-231”, “are” for “are wild type for”, “BRCA1 mutant” for “BRCA1”, “PTEN null.” for “2 and PTEN.”, “SCID” for “athymic”, “125” for “94”\nE7449, carboplatin and E7389 were evaluated as single agents and in combination for antitumor activity against MDA-MB-436 human breast cancer xenografts in SCID mice. Three separate studies were performed. The first experiment consisted of a vehicle control group, an E7449 single agent group, two groups treated with single agent E7389 and 2 combination drug-treated groups (Table 1). Thirty mice were inoculated with MDA-MB-436 cells and on Day 58 following implantation, tumor volumes were measured and mice were randomized into the 6 treatment groups based on tumor volume (average of 300 mm^3). Following randomization, drug treatment was initiated. Groups A to D were composed of 5 mice and groups E and F consisted of 4 mice for a total of 28 mice on the first day of treatment. E7449 was formulated in 0.5% methyl cellulose and orally administered once daily for 28 days (starting on Day 58) at 60 mg/kg based on body weight at 0.1 mL per 10 g. E7389 was formulated in saline and was intravenously administered once every 4 days, 4 times (Day 58, 62, 66, and 70) at a dosage of 0.4 or 1.6 mg/kg as single agent or in combination with E7449, based on body weight at 0.1 mL per 10 g. The control group was treated with oral vehicle (0.5% methyl cellulose in water) daily and intravenous vehicle (saline) once every 4 days, 4 times. E7449 or vehicle was administered first and when dosing of all animals was complete, E7389 was administered to animals receiving the combination.\nThe second experiment consisted of a vehicle control group, an E7449 single agent group, 2 groups treated with single agent carboplatin, and 2 combination drug-treated groups (Table 2). Thirty-five mice were inoculated with MDA-MB-436 cells and on Day 57, following implantation, tumor volumes were measured and mice were randomized into 6 treatment groups based on tumor volume (average of 250 mm^3). Following randomization drug treatment was initiated. Groups A to D were composed of 5 mice and groups E and F consisted of 6 mice for a total of 32 mice on the first day of treatment. E7449, formulated in 0.5% methyl cellulose was orally administered daily for 28 days (starting on Day 57), at 60 mg/kg based on body weight at 0.1 mL per 10 g. Carboplatin was formulated in saline and was intravenously administered once on the first day of treatment (Day 57) at a dosage of 15 or 60 mg/kg as a single agent or in combination with E7449 based on body weight at 0.1 mL per 10 g. The control group was treated with oral vehicle (0.5% methyl cellulose in water) daily and intravenous vehicle (saline) once on Day 57. E7449 or vehicle was administered first, and when dosing of all animals was complete carboplatin was administered to animals receiving the combination.\nThe third experiment consisted of a vehicle control group, 3 groups treated with single agent E7449, E7389, or carboplatin, 3 groups treated with double combinations of E7449+E7389, E7449+carboplatin, and E7389+carboplatin and a group treated with the three-drug combination (Table 3). Sixty mice were inoculated with MDA-MB-436 cells and on Day 41 following implantation, tumor volumes were measured and mice were randomized into 8 treatment groups based on tumor volume (average of 250 mm^3). Following randomization drug treatment was initiated."}}, "data": [{"smiles": "N.N.O=C([O-])C1(C(=O)[O-])CCC1.[Pt+2]", "note": "[carboplatin]", "values": [{"measurement": "antitumor effect (tumor volume)", "setting": "[1]", "result": "Modest antitumor activity"}, {"measurement": "antitumor effect (tumor volume)", "setting": "[2]; E7449+carboplatin study, carboplatin 15 and 60 mg/kg IV QDx1, single agent", "result": "Dose-dependent antitumor activity"}, {"measurement": "antitumor effect (tumor volume)", "setting": "[2]; triple combination study, carboplatin 7.5 mg/kg IV QDx1, single agent", "result": "statistically significant tumor growth inhibition"}]}]}
